Data taken from ChEMBL document CHEMBL5154767, “Discovery of dual-target ligands binding to beta2-adrenoceptor and cysteinyl-leukotriene receptor for the potential treatment of asthma from natural products derived DNA-encoded library” (Eur J Med Chem, 2022).
Activity calls are given as the source filed them. No cut-off for these calls is given here.

What was measured:
[1] = molecular target: T1, Beta-2 adrenergic receptor (Homo sapiens, UniProt P07550); test: Binding affinity to immobilized Halo tag-fused beta2 adrenoceptor (unknown origin) expressed in Escherichia coli BL21 (DE3) assessed as association rate constant by receptor chromatography
Target sequence in this assay (P07550 whole entry, looked up, the tested form may be a part): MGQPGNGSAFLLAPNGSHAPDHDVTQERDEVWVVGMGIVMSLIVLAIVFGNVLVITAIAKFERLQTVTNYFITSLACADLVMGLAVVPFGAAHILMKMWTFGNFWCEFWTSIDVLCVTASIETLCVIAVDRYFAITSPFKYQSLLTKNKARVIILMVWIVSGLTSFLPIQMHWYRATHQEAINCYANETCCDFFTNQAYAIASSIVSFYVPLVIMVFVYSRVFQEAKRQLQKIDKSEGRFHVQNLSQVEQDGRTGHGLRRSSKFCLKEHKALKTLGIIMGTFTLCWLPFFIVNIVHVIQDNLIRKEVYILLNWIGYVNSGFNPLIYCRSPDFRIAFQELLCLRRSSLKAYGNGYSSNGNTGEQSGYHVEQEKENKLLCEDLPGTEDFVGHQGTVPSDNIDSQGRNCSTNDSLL

[2] = molecular target: T1, Beta-2 adrenergic receptor; test: Binding affinity to immobilized Halo tag-fused beta2 adrenoceptor (unknown origin) expressed in Escherichia coli BL21 (DE3) assessed as dissociation rate constant by receptor chromatography
Target sequence in this assay (P07550 whole entry, the tested form may be a part): as the sequence (P07550 whole entry, looked up, the tested form may be a part) above

[3] = molecular target: T1, Beta-2 adrenergic receptor; test: Binding affinity to immobilized Halo tag-fused beta2 adrenoceptor (unknown origin) expressed in Escherichia coli BL21 (DE3) assessed as retention time by chromatography
Target sequence in this assay (P07550 whole entry, looked up, the tested form may be a part): as above

[4] = molecular target: T1, Beta-2 adrenergic receptor; test: Binding affinity to immobilized Halo tag-fused beta2 adrenoceptor (unknown origin) expressed in Escherichia coli BL21 (DE3) by receptor chromatography
Target sequence in this assay (P07550 whole entry, looked up, the tested form may be a part): as above

[5] = tested on: Mus musculus; test: Anti-asthmatic activity against ovalbumin-induced asthmatic mouse model assessed as infiltration of inflammatory cells in the perivascular and peribronchiolar region of lungs at 10 to 20 mg/kg, po administered once daily for 7 days by H and E staining based light microscopic analysis; format: functional, organism-based; conditions: dose 10-20 mg/kg, time 7.0 day
[6] = molecular target: T2, Uracil nucleotide/cysteinyl leukotriene receptor (Homo sapiens, UniProt Q13304)
T2 sequence (Q13304 whole entry): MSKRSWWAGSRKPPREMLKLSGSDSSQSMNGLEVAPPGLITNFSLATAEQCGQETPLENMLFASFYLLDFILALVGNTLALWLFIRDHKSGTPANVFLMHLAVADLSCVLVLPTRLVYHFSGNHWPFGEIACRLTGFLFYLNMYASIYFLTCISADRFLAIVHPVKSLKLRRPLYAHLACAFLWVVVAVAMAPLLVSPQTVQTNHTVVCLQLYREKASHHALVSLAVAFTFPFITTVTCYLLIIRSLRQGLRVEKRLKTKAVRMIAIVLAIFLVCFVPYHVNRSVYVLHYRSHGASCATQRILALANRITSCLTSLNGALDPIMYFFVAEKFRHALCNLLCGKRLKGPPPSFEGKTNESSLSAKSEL
Description: Binding affinity to immobilized Halo tag-fused CysLT receptor (unknown origin) expressed in Escherichia coli BL21 (DE3) assessed as association rate constant by receptor chromatography

[7] = tested on: Mus musculus; test: Anti-asthmatic activity against ovalbumin-induced asthmatic mouse model assessed as decrease in IL-13 level in BALF administered orally once daily for 7 days by ELISA; format: functional, organism-based; conditions: dose 10-20 mg/kg, route po, time 7.0 day, DDE = dose-dependent effect
[8] = tested on: Mus musculus; test: Decrease in CysLT receptor expression in bronchus in ovalbumin-induced asthmatic mouse model administered orally once daily for 7 days by Western blot analysis; format: functional; conditions: dose 10-20 mg/kg, route po, time 7.0 day, DDE = dose-dependent effect
[9] = molecular target: T2, Uracil nucleotide/cysteinyl leukotriene receptor; test: Binding affinity to immobilized Halo tag-fused CysLT receptor (unknown origin) expressed in Escherichia coli BL21 (DE3) assessed as dissociation rate constant by receptor chromatography
[10] = tested on: Mus musculus; test: Anti-asthmatic activity against ovalbumin-induced asthmatic mouse model assessed as decrease in IgE level in serum administered orally once daily for 7 days by ELISA; format: functional, organism-based; conditions: dose 10-20 mg/kg, route po, time 7.0 day, DDE = dose-dependent effect
[11] = tested on: Mus musculus; test: Increase in beta2 adrenoceptor expression in bronchus in ovalbumin-induced asthmatic mouse model administered orally once daily for 7 days by Western blot analysis; format: functional; conditions: dose 10-20 mg/kg, route po, time 7.0 day, DDE = dose-dependent effect
[12] = tested on: Mus musculus; test: Anti-asthmatic activity against ovalbumin-induced asthmatic mouse model assessed as decrease in IL-4 level in BALF administered orally once daily for 7 days by ELISA; format: functional, organism-based; conditions: dose 10-20 mg/kg, route po, time 7.0 day, DDE = dose-dependent effect
[13] = molecular target: T2, Uracil nucleotide/cysteinyl leukotriene receptor; remark: listed apart in the source
Description: Binding affinity to immobilized Halo tag-fused CysLT receptor (unknown origin) expressed in Escherichia coli BL21 (DE3) assessed as retention time by chromatography

[14] = tested on: Mus musculus; test: Anti-asthmatic activity against ovalbumin-induced asthmatic mouse model assessed as decrease in IgE level in serum at 2.6 mg/kg, po administered once daily for 7 days by ELISA; format: functional, organism-based; conditions: time 7.0 day
[15] = tested on: Mus musculus; test: Anti-asthmatic activity against ovalbumin-induced asthmatic mouse model assessed as decrease in IL-5 level in BALF at 2.6 mg/kg, po administered once daily for 7 days by ELISA; format: functional, organism-based; conditions: time 7.0 day
[16] = tested on: Mus musculus; test: Increase in beta2 adrenoceptor expression in bronchus in ovalbumin-induced asthmatic mouse model at 2.6 mg/kg, po administered once daily for 7 days by Western blot analysis; format: functional, organism-based; conditions: time 7.0 day
[17] = tested on: Mus musculus; test: Anti-asthmatic activity against ovalbumin-induced asthmatic mouse model assessed as decrease in IL-4 level in BALF at 2.6 mg/kg, po administered once daily for 7 days by ELISA; format: functional, organism-based; conditions: time 7.0 day
[18] = tested on: Mus musculus; test: Anti-asthmatic activity against ovalbumin-induced asthmatic mouse model assessed as infiltration of inflammatory cells in the perivascular and peribronchiolar region of lungs at 2.6 mg/kg, po administered once daily for 7 days by H and E staining based light microscopic analysis; format: functional, organism-based; conditions: time 7.0 day
[19] = tested on: Mus musculus; test: Anti-asthmatic activity against ovalbumin-induced asthmatic mouse model assessed as infiltration of inflammatory cells in the perivascular and peribronchiolar region of lungs at 20 mg/kg, po administered once daily for 7 days by H and E staining based light microscopic analysis; format: functional, organism-based; conditions: time 7.0 day

Row | Compound | Ka [1] | Kd [2] | Retention time [3] | K [4] | Ka [6] | Kd [9] | Retention time [13] | also measured
1 | CNC(C)Cc1ccccc1OC (stereo unspecified) [METHOXYPHENAMINE] | 1.93 10^5/M/s | 0.98 s⁻¹ | 3.6 min | 0.5 10^4/M |  |  |  | 
2 | CC1(C)[C@@H](O)CC[C@]2(C)[C@H]3C(=O)C=C4[C@@H]5C[C@@](C)(C(=O)NCCc6ccc(O)cc6)CC[C@]5(C)CC[C@@]4(C)[C@]3(C)CC[C@@H]12 | 4.94 10^5/M/s | 7.52 s⁻¹ |  | 6.57 10^4/M | 4.85 10^5/M/s | 17.2 s⁻¹ |  | Activity [5]: Active; Activity [7]: Dde; inhibition [8]: Dde; Activity [10]: Dde; Activity [11]: Dde; Activity [12]: Dde
3 | CC(C)(O)c1ccccc1CC[C@@H](SCC1(CC(=O)[O-])CC1)c1cccc(/C=C/c2ccc3ccc(Cl)cc3n2)c1.[Na+] [MONTELUKAST SODIUM] |  |  |  |  | 5.18 10^5/M/s | 12.6 s⁻¹ | 8.7 min | 
4 | CC(c1cc2ccccc2s1)N(O)C(N)=O (stereo unspecified) |  |  |  |  |  |  | 3.5 min | 
5 | CN(C)C(=O)Oc1cc(OC(=O)N(C)C)cc(C(O)CNC(C)(C)C)c1 (stereo unspecified) |  |  | 4.1 min |  |  |  |  | Activity [14]: Active; Activity [15]: Active; Activity [16]: Active; Activity [17]: Active; Activity [18]: Active
6 | CC1(C)[C@@H](O)CC[C@]2(C)[C@H]3C(=O)C=C4[C@@H]5C[C@@](C)(C(=O)O)CC[C@]5(C)CC[C@@]4(C)[C@]3(C)CC[C@@H]12 |  |  |  |  |  |  |  | Activity [19]: Active
